From ChEMBL document CHEMBL4346715, “Antibacterial activity study of 1,2,4-triazole derivatives” (Eur J Med Chem, 2019) come the findings set out here.

≈ marks a conversion by molar mass, not a printed value.

Assay [1] deals with Escherichia coli. The experiment in a line: Antibacterial activity against Escherichia coli incubated for 18 hrs post 30 mins pre-diffusion by disk diffusion method. Type of assay: functional. For orientation: A growth-free zone around the sample is the usual read-out of agar diffusion tests.
Assay [2] has as its system Staphylococcus aureus. The experiment in a line: Antibacterial activity against Staphylococcus aureus incubated for 18 hrs post 30 mins pre-diffusion by disk diffusion method. Type of assay: functional.
For assay [3], the system named is Pseudomonas aeruginosa. The experiment in a line: Antibacterial activity against Pseudomonas aeruginosa. Type of assay: functional.
The next assay relates to Aspergillus niger. The experiment in a line: Antifungal activity against Aspergillus niger. The assay is classed as functional.
The subject of assay [4] is Staphylococcus aureus. The experiment in a line: Antibacterial activity against Staphylococcus aureus. The assay is classed as functional.
Assay [5] has as its system Escherichia coli. The experiment in a line: Antibacterial activity against Escherichia coli. Type of assay: functional.
In a further assay the test system is Bacillus subtilis. Description: Antibacterial activity against Bacillus subtilis. The assay is classed as functional.
The next assay deals with Candida albicans. The experiment in a line: Antifungal activity against Candida albicans. Type of assay: functional.
The test system of another assay is Streptococcus pneumoniae. The experiment in a line: Antibacterial activity against Streptococcus pneumoniae. Type of assay: functional.
A further assay has as its system Clostridium tetani. Description: Antibacterial activity against Clostridium tetani. The assay is classed as functional.
The test system of assay [6] is Pseudomonas aeruginosa. The experiment in a line: Antibacterial activity against Pseudomonas aeruginosa ATCC 27853 after 24 hrs by broth microdilution method. Type of assay: functional. As to conditions: ATCC 27853, 24 h.
A further assay has as its system Salmonella typhimurium. Description: Antibacterial activity against Salmonella typhimurium ATCC 14028 after 24 hrs by broth microdilution method. The assay is classed as functional, Salmonella enterica subsp. enterica serovar Typhimurium. As to conditions: Salmonella enterica, ATCC 14028, 24 h. Background: Broth dilution looks for growth in wells or tubes with falling amounts of substance.

Assay [7] deals with Staphylococcus aureus. The experiment in a line: Antibacterial activity against Staphylococcus aureus ATCC 49444 after 24 hrs by broth microdilution method. The assay is classed as functional. As to conditions: ATCC 49444, 24 h.
The test system of another assay is Listeria monocytogenes. The experiment in a line: Antibacterial activity against Listeria monocytogenes ATCC 35152 after 24 hrs by broth microdilution method. Type of assay: functional. As to conditions: ATCC 35152, 24 h.
The test system of assay [8] is Escherichia coli. Description: Antibacterial activity against Escherichia coli after 24 hrs by broth microdilution method. The assay is classed as functional.

Regarding `CSc1nc(Cl)cc(Sc2nnc(-c3cccc(C(F)(F)F)c3)[nH]2)n1`, the MIC in the assay on Escherichia coli [1] and against Staphylococcus aureus [2] was 1.6 to 250 µg/mL (≈ 3.96 to 619 µM) each time.

With `CC/C=N/n1c(S)nnc1-c1ccncc1`, the MIC in the assay on Pseudomonas aeruginosa [3], in the assay with Aspergillus niger, against Staphylococcus aureus [4], against Escherichia coli [5], against Bacillus subtilis and in the assay with Candida albicans was 10.2 to 162 µg/mL (≈ 43.7 to 697 µM) in each case.

Consider `OCCCCSc1nc(Cl)cc(Sc2nnc(-c3cc(C(F)(F)F)cc(C(F)(F)F)c3)[nH]2)n1`, for which the MIC in the assay with Escherichia coli [1] and in the assay on Staphylococcus aureus [2] was 1.6 to 250 µg/mL (≈ 3.02 to 472 µM) throughout.

As for `C=CC/C=N/n1c(S)nnc1-c1ccncc1`, the MIC in the assay with Pseudomonas aeruginosa [3], against Aspergillus niger, against Staphylococcus aureus [4], in the assay on Escherichia coli [5], against Bacillus subtilis and in the assay on Candida albicans was 10.2 to 162 µg/mL (≈ 41.6 to 662 µM) in each case.

Regarding `Fc1cccc(-c2nnc(Sc3cc(Cl)nc(Sc4ccccc4)n3)[nH]2)c1`, the minimum inhibitory concentration (MIC) with Escherichia coli [1] and in the assay with Staphylococcus aureus [2] was 1.6 to 250 µg/mL (≈ 3.85 to 601 µM) in each case.

As to `Cc1nn(-c2ccccc2)c(-n2cncn2)c1-c1cc(-c2ccc(O)cc2)nc2nc3ccccc3n12`, the MIC with Staphylococcus aureus [4], in the assay on Streptococcus pneumoniae, against Escherichia coli [5], against Clostridium tetani and against Bacillus subtilis was 62.5 to 250 µg/mL (≈ 129 to 516 µM) in each case.

Regarding `Brc1ccccc1-c1nnc2sc(-c3ccccc3)nn12`, the values for the MIC against Aspergillus niger and against Candida albicans were 6.25 µg/mL (≈ 17.5 µM) and 3.12 µg/mL (≈ 8.75 µM), respectively.

For the compound `Cc1nn(-c2ccccc2)c(-n2cncn2)c1-c1cc(-c2ccc(-c3cc[nH]c3)cc2)nc2nc3ccccc3n12`, the minimum inhibitory concentration (MIC) in the assay with Staphylococcus aureus [4], in the assay with Streptococcus pneumoniae, in the assay on Escherichia coli [5], in the assay with Clostridium tetani and in the assay on Bacillus subtilis was 62.5 to 250 µg/mL (≈ 117 to 469 µM) each time.

With `CSc1nc(Cl)cc(Sc2nnc(-c3cccc(F)c3)[nH]2)n1`, the MIC in the assay on Escherichia coli [1] and in the assay on Staphylococcus aureus [2] was 1.6 to 250 µg/mL (≈ 4.52 to 707 µM) each time.

`COc1ccc(-c2cc(-c3c(C)nn(-c4ccccc4)c3-n3cncn3)n3c(n2)nc2ccccc23)cc1`: the MIC against Staphylococcus aureus [4], in the assay on Streptococcus pneumoniae, in the assay on Escherichia coli [5], in the assay with Clostridium tetani and in the assay on Bacillus subtilis was 62.5 to 250 µg/mL (≈ 125 to 501 µM) in each case.

For the compound `Cc1nc(-c2ccccc2)sc1-c1nnc(S)n1/N=C/c1ccccc1O`, the minimal inhibitory concentration (MIC) against Pseudomonas aeruginosa [6], with Salmonella typhimurium, in the assay on Staphylococcus aureus [7], in the assay on Listeria monocytogenes and in the assay with Escherichia coli [8] was 1.95 to 62.5 µg/mL (≈ 4.96 to 159 µM) each time.

As for `Cc1nc(-c2ccccc2)sc1-c1nnc(S)n1/N=C/c1cccc(O)c1`, the minimal inhibitory concentration (MIC) in the assay with Pseudomonas aeruginosa [6], against Salmonella typhimurium, against Staphylococcus aureus [7], with Listeria monocytogenes and against Escherichia coli [8] was 1.95 to 62.5 µg/mL (≈ 4.96 to 159 µM) throughout.

Take `COc1cc(OC)cc(-c2nnc(Sc3cc(Cl)nc(SC)n3)[nH]2)c1`: the minimal inhibitory concentration (MIC) with Escherichia coli [1] and in the assay on Staphylococcus aureus [2] was 1.6 to 250 µg/mL (≈ 4.04 to 631 µM) throughout.

`Cc1nc(-c2ccccc2)sc1-c1nnc(S)n1/N=C/c1ccc(Cl)cc1Cl`: the minimal inhibitory concentration (MIC) with Pseudomonas aeruginosa [6], in the assay with Salmonella typhimurium, against Staphylococcus aureus [7], in the assay with Listeria monocytogenes and against Escherichia coli [8] was 1.95 to 62.5 µg/mL (≈ 4.37 to 140 µM) in each case.

Consider `Fc1ccc(/C=N/n2c(-c3ccncc3)n[nH]c2=S)cc1`, for which the minimal inhibitory concentration (MIC) with Pseudomonas aeruginosa [3] was 12.5 µg/mL (≈ 41.8 µM); in the assay with Aspergillus niger it was 10.2 to 162 µg/mL (≈ 34.1 to 543 µM); against Staphylococcus aureus [4], 10.2 µg/mL (≈ 34.1 µM); against Escherichia coli [5], 10.2 to 162 µg/mL (≈ 34.1 to 543 µM); against Bacillus subtilis it was 10.2 to 162 µg/mL (≈ 34.1 to 543 µM); with Candida albicans it was 10.2 to 162 µg/mL (≈ 34.1 to 543 µM).

On to `Fc1cc(F)cc(-c2nnc(Sc3cc(Cl)nc(Sc4ccccc4)n3)[nH]2)c1`, for which the MIC with Escherichia coli [1] and against Staphylococcus aureus [2] was 1.6 to 250 µg/mL (≈ 3.69 to 576 µM) in each case.

Turning to `FC(F)(F)c1cc(-c2nnc(Sc3cc(Cl)nc(Oc4ccccc4)n3)[nH]2)cc(C(F)(F)F)c1`, the MIC in the assay with Escherichia coli [1] and in the assay with Staphylococcus aureus [2] was 1.6 to 250 µg/mL (≈ 3.09 to 483 µM) throughout.

As to `Cc1nn(-c2ccccc2)c(-n2cncn2)c1-c1cc(-c2ccccc2)nc2nc3ccccc3n12`, the MIC against Staphylococcus aureus [4], against Streptococcus pneumoniae, against Escherichia coli [5], with Clostridium tetani and in the assay on Bacillus subtilis was 62.5 to 250 µg/mL (≈ 133 to 534 µM) in each case.

For the compound `CCC/C=N/n1c(S)nnc1-c1ccncc1`, the MIC with Pseudomonas aeruginosa [3], against Aspergillus niger, against Staphylococcus aureus [4], in the assay with Escherichia coli [5], in the assay on Bacillus subtilis and with Candida albicans was 10.2 to 162 µg/mL (≈ 41.2 to 657 µM) throughout.

As to `Sc1nnc(-c2ccncc2)n1/N=C/c1ccc(Br)cc1`, the MIC against Pseudomonas aeruginosa [3], in the assay with Aspergillus niger, with Staphylococcus aureus [4], against Escherichia coli [5], against Bacillus subtilis and against Candida albicans was 10.2 to 162 µg/mL (≈ 28.3 to 451 µM) throughout.

On to `Sc1nnc(-c2ccncc2)n1/N=C/c1ccc(Cl)cc1`, for which the MIC in the assay on Pseudomonas aeruginosa [3], in the assay with Aspergillus niger, in the assay with Staphylococcus aureus [4], in the assay with Escherichia coli [5], against Bacillus subtilis and with Candida albicans was 10.2 to 162 µg/mL (≈ 32.3 to 515 µM) each time.

Take NYSTATIN: the MIC with Staphylococcus aureus [4], in the assay on Streptococcus pneumoniae, against Escherichia coli [5], in the assay on Clostridium tetani and against Bacillus subtilis was 100 to 500 µg/mL each time.

The MIC is the smallest concentration in the dilution series that meets the test's criterion for growth inhibition. Lower therefore signals inhibition by little substance.
